Values of other authors in patent publication US20110130355A1, “USE OF SOPHORICOSIDE IN THE MANUFACTURE OF MEDICAMENTS” (priority 2008, published 2011).
Where two headings read alike, the source gives them in different places.

What was measured:
[1] = test system: rabbit articular chondrocytes; conditions: cited from earlier work
[2] = test system: femoral-metaphyseal tissues; conditions: in vitro, tissues from aging female rats; cited from earlier work
ovariectomized rats = conditions: cited from earlier work

SMILES	degradation of proteoglycan induced by interleukin (IL) 1β ([1]; high concentration, 10 nmol/l)	degradation of proteoglycan induced by interleukin (IL) 1β ([1]; low concentration, 0.1 nmol/l)	contents of alkaline phosphatase, DNA and calcium in the femoral-metaphyseal tissues [2]	loss of bone mass (ovariectomized rats)
C[C@]12CC[C@@H]3c4ccc(O)cc4CC[C@H]3[C@@H]1CC[C@@H]2O [17β-estradiol]	increased its effect	inhibited the degradation of proteoglycan induced by interleukin (IL) 1β		
O=c1c(-c2ccc(O)cc2)coc2cc(O)cc(O)c12 [genistein]			substantially increases	
O=c1c(-c2ccc(O)cc2)coc2cc(O[C@@H]3O[C@H](CO)[C@@H](O)[C@H](O)[C@H]3O)cc(O)c12 [genistin, genistein-7-O-glucopyranoside]			substantially increases	prevent loss of bone mass
